The results in this text go back to patent publication US20090221522A1, “METHODS TO CORRECT GENE SET EXPRESSION PROFILES TO DRUG SENSITIVITY” (The Johns Hopkins University, priority 2008, published 2009).

For the test, the system named is patient-derived xenografts refractory to gemcitabine. Briefly: Pre-clinical second-line study in xenografts refractory to gemcitabine (TGI). Format: in vivo, mice. The settings on record: for TGI: treated with gemcitabine (first line). The method, then: FIG. 11 illustrates a pre-clinical design.
FIG. 12 illustrates validation on the xenografts of FIG. 11 based on prediction according to the present invention. Four xenograft cases were used. […] A case is defined as a responder to the drug treatment if Tumor Growth Inhibition (TGI) is <20%. Negative TGI values indicate tumor regression.
Relative tumor growth index (TGI) was calculated as TGI=(Ti−T0/Ci−C0) if Ti>T0 (indicates tumor growth inhibition) and TGI=(Ti−T0) if Ti≦T0 (indicates tumor regression). T and C represent tumor size in the treated and control group at the last of experiment, respectively; T0 and C0 represent tumor size in the treated and control group at the start of treatment, respectively.
Seven FDA approved anticancer agents (capecitabine, cisplatin, docetaxel, doxorubicin, etoposide, irinotecan and oxaliplatin) were used as potential second line of drugs for selection according to the present invention. The one-size-fits-all treatment was erlotinib, an FDA approved targeted therapy for advanced pancreatic cancer. See Moore M J, Goldstein D, Hamm J, et al. Erlotinib plus gemcitabine compared with gemcitabine alone in patients with advanced pancreatic cancer: a phase Ill trial of the National Cancer Institute of Canada Clinical Trials Group. J Clin Oncol 25:1960-06 2007. […] Xenograft models of these cases were randomly assigned to (i) control, (ii) erlotinib arm (one-size-fits-all second line treatment) and (iii) molecular mimicry arm (i.e., drug selection according to the present invention). For the molecular mimicry arm, the baseline gene expression profiles of these cases were connected the NCI reference panel using GS-CMAP, and one of the seven anticancer agents was assigned to the case based on comparing the GI50 among these drugs. Molecular mimicry predicted that JH033 and JH034 are sensitive to docetaxel, PANC185 is sensitive to irinotecan and PANC219 is sensitive to doxorubicin. These cases were treated with the molecular mimicry choice of drugs and tumor volumes were measured. At the end of the experiment, xenografts treated with molecular mimicry choice of drugs had higher tumor growth inhibition than their litter mates treated with erlotinib (FIGS. 12 and 13).

The structures appear in SMILES notation.

With `Nc1ccn([C@@H]2O[C@H](CO)[C@@H](O)C2(F)F)c(=O)n1` [gemcitabine], under “four xenograft cases (PANC185, PANC219, JH033, JH034)”, the “median TGI” value was found to be 36.5%. In addition, the TGI entry is, setting by setting: (xenograft JH033) “more than 20%”; (xenograft JH034) “more than 20%”; (xenograft PANC185) “more than 20%”; (xenograft PANC219) “more than 20%”.
